Biological target: PknB (Mycobacterium tuberculosis, UniProt P9WI81)
Assay: ATP Glo kinase assay, GarA as protein substrate
Type: biochemical

Chain of PknB (P9WI81 1-331 limits assumed): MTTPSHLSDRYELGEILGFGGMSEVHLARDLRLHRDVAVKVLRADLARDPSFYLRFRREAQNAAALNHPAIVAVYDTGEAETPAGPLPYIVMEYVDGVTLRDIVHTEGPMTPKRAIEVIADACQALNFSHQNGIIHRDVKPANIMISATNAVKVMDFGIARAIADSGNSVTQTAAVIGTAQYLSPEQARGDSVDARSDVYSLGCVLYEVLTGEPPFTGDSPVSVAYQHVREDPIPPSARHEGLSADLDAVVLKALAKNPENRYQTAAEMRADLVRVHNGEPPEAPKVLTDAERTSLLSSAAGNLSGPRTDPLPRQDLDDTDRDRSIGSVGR

COC(=O)/C=C/C(=O)c1ccc(OC)cc1 [YH-8, trans-Methyl-4-(4-methoxyphneyl)-4-oxobut-2-enoate]
IC50: 6.6 µM
